Laboratory results published in patent publication US20260098026A1, “M4 ACTIVATORS/MODULATORS AND USES THEREOF” (Cerevel Therapeutics, LLC, priority 2022, published 2026).

Assays:
Format in all cases: cell-based
[1] = molecular target: T1, M4 mAChR (Homo sapiens, UniProt P08173); test: cAMP TR-FRET assay with forskolin, M4-overexpressing CHO-K1 cells
T1 construct: expressed in transfected cells; host or cells: CHO-K1
T1 sequence (P08173 1-479): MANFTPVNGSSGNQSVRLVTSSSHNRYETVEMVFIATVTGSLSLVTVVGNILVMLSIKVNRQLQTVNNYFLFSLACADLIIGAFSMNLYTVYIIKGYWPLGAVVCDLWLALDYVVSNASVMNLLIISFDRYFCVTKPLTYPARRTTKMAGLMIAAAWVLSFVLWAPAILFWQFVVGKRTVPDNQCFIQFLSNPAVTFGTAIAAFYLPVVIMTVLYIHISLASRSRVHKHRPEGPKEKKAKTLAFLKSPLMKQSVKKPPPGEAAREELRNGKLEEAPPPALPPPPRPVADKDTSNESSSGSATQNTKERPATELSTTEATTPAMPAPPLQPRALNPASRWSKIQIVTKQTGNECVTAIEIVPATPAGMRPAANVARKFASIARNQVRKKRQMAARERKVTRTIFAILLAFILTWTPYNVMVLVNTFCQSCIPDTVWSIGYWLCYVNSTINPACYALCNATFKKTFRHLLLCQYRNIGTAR
Summary of the method: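 CHO-K1 cells overexpressing the receptor were stimulated with forskolin to raise cAMP, so that Gi-mediated agonist decreases could be measured. cAMP was quantified by TR-FRET competition between cellular cAMP and labelled donor for anti-cAMP antibody, giving potency and efficacy.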

[2] = molecular target: T2, M1 muscarinic acetylcholine receptor (mAChR) (Homo sapiens, UniProt P11229); test: FLIPR calcium assay (Fluo 8), M1-overexpressing CHO-K1 cells
T2 construct: expressed in transfected cells; host or cells: CHO-K1
T2 sequence (P11229 1-460): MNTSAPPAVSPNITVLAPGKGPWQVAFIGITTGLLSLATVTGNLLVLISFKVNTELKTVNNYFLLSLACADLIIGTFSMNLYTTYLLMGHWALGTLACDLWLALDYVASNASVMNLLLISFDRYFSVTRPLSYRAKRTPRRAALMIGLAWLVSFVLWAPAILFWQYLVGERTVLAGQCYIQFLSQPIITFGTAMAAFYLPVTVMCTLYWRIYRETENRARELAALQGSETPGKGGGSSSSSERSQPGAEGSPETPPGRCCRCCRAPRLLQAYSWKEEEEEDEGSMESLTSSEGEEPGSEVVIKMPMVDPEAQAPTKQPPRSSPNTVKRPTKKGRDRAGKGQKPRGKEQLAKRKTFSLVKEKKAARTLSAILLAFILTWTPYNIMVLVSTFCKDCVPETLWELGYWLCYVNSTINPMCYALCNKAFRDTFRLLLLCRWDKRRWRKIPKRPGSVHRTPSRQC
Method: (§1) Stimulation of a Gq-coupled G-protein coupled receptors (GPCRs), result in an efflux of calcium from the endoplasmic reticulum to the cytoplasm (Berridge, 1993), thus rendering this assay appropriate for the assessment of M1, M3 and M5 receptors. CHO-K1 cells overexpressing the M1, M3, or M5 muscarinic acetylcholine receptor (mAChR) were dispensed at 15,000 cells per well in 30 μl volume to 384-well plates and grown overnight at 37° C. in a 5% CO2 atmosphere. Fluo-8 Solution, 10 μl per well, was added to each well and incubated for 30 minutes at 37° C. in a 5% CO2 atmosphere. Compounds diluted in Hanks' balanced salt solution (HBSS) were transferred to the cell assay plate at 10 μl per well, and then read on a FLIPR instrument. EC50 and Emax figures were calculated from the resulting data for each receptor subtype.

[3] = molecular target: T3, M3 muscarinic acetylcholine receptor (mAChR) (Homo sapiens, UniProt P20309); test: FLIPR calcium assay (Fluo 8), M3-overexpressing CHO-K1 cells
T3 construct: expressed in transfected cells; host or cells: CHO-K1
Summary of the method: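 CHO-K1 cells overexpressing each human receptor seeded at 15,000 per well, grown overnight at 37° C., 5% CO2, then loaded with Fluo-8 for 30 min. Compounds in HBSS added and calcium response read on FLIPR; EC50 and Emax calculated per subtype.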

[4] = molecular target: T4, M5 muscarinic acetylcholine receptor (mAChR) (Homo sapiens, UniProt P08912); test: FLIPR calcium assay (Fluo 8), M5-overexpressing CHO-K1 cells
T4 construct: expressed in transfected cells; host or cells: CHO-K1
T4 sequence (P08912 1-532): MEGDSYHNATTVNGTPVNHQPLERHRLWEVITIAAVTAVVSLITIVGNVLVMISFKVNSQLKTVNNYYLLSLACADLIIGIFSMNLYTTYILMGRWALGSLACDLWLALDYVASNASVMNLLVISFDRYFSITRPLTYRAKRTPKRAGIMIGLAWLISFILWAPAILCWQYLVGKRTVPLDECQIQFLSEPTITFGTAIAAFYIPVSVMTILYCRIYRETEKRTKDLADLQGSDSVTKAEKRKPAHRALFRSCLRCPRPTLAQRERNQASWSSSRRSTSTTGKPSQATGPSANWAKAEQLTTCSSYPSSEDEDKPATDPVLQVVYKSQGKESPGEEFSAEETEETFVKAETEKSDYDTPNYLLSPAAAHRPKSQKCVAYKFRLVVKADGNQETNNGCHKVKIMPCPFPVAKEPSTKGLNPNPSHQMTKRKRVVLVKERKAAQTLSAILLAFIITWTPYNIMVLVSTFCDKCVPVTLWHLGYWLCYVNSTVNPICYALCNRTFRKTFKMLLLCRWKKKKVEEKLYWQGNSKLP
Method: as §1

T3 sequence (P20309 whole entry): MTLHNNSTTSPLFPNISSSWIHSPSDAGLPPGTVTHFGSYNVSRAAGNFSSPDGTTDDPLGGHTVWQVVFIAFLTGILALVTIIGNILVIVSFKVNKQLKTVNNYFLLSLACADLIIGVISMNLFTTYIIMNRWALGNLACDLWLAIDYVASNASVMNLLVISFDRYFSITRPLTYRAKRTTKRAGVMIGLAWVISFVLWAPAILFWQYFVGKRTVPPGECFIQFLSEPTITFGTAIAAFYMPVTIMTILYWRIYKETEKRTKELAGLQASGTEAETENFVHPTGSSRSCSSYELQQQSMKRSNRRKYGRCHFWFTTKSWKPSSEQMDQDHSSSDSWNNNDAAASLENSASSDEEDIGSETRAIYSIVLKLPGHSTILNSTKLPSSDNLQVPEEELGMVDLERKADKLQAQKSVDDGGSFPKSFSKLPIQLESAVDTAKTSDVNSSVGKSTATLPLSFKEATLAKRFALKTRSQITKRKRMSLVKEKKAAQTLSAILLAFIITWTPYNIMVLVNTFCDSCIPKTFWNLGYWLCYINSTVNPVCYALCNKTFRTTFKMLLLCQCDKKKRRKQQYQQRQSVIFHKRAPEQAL

Row | Structure (SMILES) | Emax ([1]; cAMP TR-FRET with forskolin) | Emax ([2]; FLIPR calcium) | EC50 ([3]; FLIPR calcium) | further results
1 | CCOC(=O)N1CC2(CC[C@@H](N3CCN(c4cc(F)cnc4-c4cnc(F)nc4)CC3)C2)C1 [Compound A184] | – | – | – | Emax ([1]; cAMP assay): 80 to 100%; Emax ([2]; FLIPR): 19 to 49.9%; EC50 ([3]; FLIPR): > 10 µM
2 | CCOC(=O)N1CC2(CC[C@@H](N3CCN(c4cc(F)cnc4-c4cnc(C)nc4)CC3)C2)C1 [Compound A185] | – | – | – | Emax ([1]; cAMP assay): 80 to 100%; Emax ([2]; FLIPR): 19 to 49.9%; EC50 ([3]; FLIPR): > 10 µM
3 | CCOC(=O)N1CC2(CC[C@@H](N3CCN(c4cc(F)cnc4-c4ccncc4)CC3)C2)C1 [Compound A53] | 80 to 100% | 19 to 49.9% | > 10 µM | –
4 | CCOC(=O)N1CC2(CC[C@@H](N3CCN(c4cccnc4-c4cncc(OC)c4)CC3)C2)C1 [Compound A1, ethyl (6R)-6-[4-[2-(5-methoxy-3-pyridyl)-3-pyridyl]piperazin-1-yl]-2-azaspiro[3.4]octane-2-carboxylate] | 80 to 100% | – | > 10 µM | Emax ([4]; FLIPR calcium): 19 to 49.9%
5 | CCOC(=O)N1CC2(CC[C@@H](N3CCN(c4cc(F)cnc4-c4cnc5c(c4)ncn5C)CC3)C2)C1 [Compound A51] | 80 to 100% | 19 to 49.9% | > 10 µM | –
6 | CCOC(=O)N1CC2(CC[C@@H](N3CCN(c4cc(F)cnc4-c4ccc(C(=O)NC)cc4)CC3)C2)C1 [Compound A103] | 80 to 100% | 19 to 49.9% | > 10 µM | –
7 | CCOC(=O)N1CC2(CC[C@@H](N3CCN(c4cc(F)cnc4-c4conc4C)CC3)C2)C1 [Compound A140] | 80 to 100% | 19 to 49.9% | > 10 µM | –
8 | CCOC(=O)N1CC2(CC[C@@H](N3CCN(c4cc(F)cnc4-c4cccnc4OCC)CC3)C2)C1 [Compound A49] | 80 to 100% | 50 to 79.9% | > 10 µM | –
9 | CCOC(=O)N1CC2(CC[C@@H](N3CCN(c4cc(F)cnc4-c4cnc(NC(C)C)nc4)CC3)C2)C1 [Compound A87] | 80 to 100% | 19 to 49.9% | > 10 µM | –
10 | CCOC(=O)N1CC2(CC[C@@H](N3CCN(c4cc(F)cnc4-c4cncs4)CC3)C2)C1 [Compound A59] | 80 to 100% | 19 to 49.9% | > 10 µM | –
11 | CCOC(=O)N1CC2(CC[C@@H](N3CCN(c4cc(F)cnc4-c4ccnn4CC)CC3)C2)C1 [Compound A93] | 80 to 100% | 19 to 49.9% | > 10 µM | –
12 | CCOC(=O)N1CC2(CC[C@@H](N3CCN(c4cc(F)cnc4-c4cnc(OC)c(F)c4)CC3)C2)C1 [Compound A139] | 80 to 100% | < 19% | > 10 µM | –
13 | CCOC(=O)N1CC2(CC[C@@H](N3CCN(c4cc(F)cnc4-c4cncc(O)c4)CC3)C2)C1 [Compound A82] | 80 to 100% | 19 to 49.9% | > 10 µM | –
14 | CCOC(=O)N1CC2(CC[C@@H](N3CCN(c4cc(F)cnc4-c4cnc5ccnn5c4)CC3)C2)C1 [Compound A100] | 80 to 100% | 19 to 49.9% | > 10 µM | –
15 | CCOC(=O)N1CC2(CC[C@@H](N3CCN(c4cc(F)cnc4-c4ccc(NC(C)=O)nc4)CC3)C2)C1 [Compound A75] | 80 to 100% | 19 to 49.9% | > 10 µM | –
16 | CCOC(=O)N1CC2(CC[C@@H](N3CCN(c4cc(F)cnc4-c4cnoc4C)CC3)C2)C1 [Compound A113] | 80 to 100% | 19 to 49.9% | > 10 µM | –
17 | CCOC(=O)N1CC2(CC[C@@H](N3CCN(c4cc(F)cnc4-c4cnc(OC)nc4)CC3)C2)C1 [Compound A146] | 80 to 100% | 19 to 49.9% | > 10 µM | –

Row | Structure (SMILES) | Emax ([1]; cAMP TR-FRET with forskolin) | Emax ([2]; FLIPR calcium) | EC50 ([3]; FLIPR calcium) | further results
18 | CCOC(=O)N1CC2(CC[C@@H](N3CCN(c4cc(F)cnc4-c4cnn(CC)c4)CC3)C2)C1 [Compound A74] | 80 to 100% | – | > 10 µM | Emax ([4]; FLIPR calcium): 19 to 49.9%
19 | CCOC(=O)N1CC2(CC[C@@H](N3CCN(c4cc(F)cnc4-c4cnc(O)c(C)c4)CC3)C2)C1 [Compound A166] | – | – | – | Emax ([1]; cAMP assay): 80 to 100%; EC50 ([3]; FLIPR): > 10 µM; Emax ([4]; FLIPR): 19 to 49.9%
20 | CCOC(=O)N1CC2(CC[C@@H](N3CCN(c4cc(F)cnc4-c4ccc(F)nc4)CC3)C2)C1 [Compound A2, ethyl (6R)-6-[4-[5-fluoro-2-(6-fluoro-3-pyridyl)-3-pyridyl]piperazin-1-yl]-2-azaspiro[3.4]octane-2-carboxylate] | 80 to 100% | 19 to 49.9% | > 10 µM | –
21 | CCOC(=O)N1CC2(CC[C@@H](N3CCN(c4cc(F)cnc4N4CCOCC4)CC3)C2)C1 [Compound A289] | – | – | – | Emax ([1]; cAMP assay): 80 to 100%; Emax ([2]; FLIPR): 19 to 49.9%; EC50 ([3]; FLIPR): > 10 µM
22 | CCOC(=O)N1CC2(CC[C@@H](N3CCN(c4cc(F)cnc4-c4ccccc4O)CC3)C2)C1 [Compound A104] | 80 to 100% | 19 to 49.9% | > 10 µM | –
23 | CCOC(=O)N1CC2(CC[C@@H](N3CCN(c4cc(F)cnc4-c4cn/c(=N\C)[nH]c4)CC3)C2)C1 [Compound A70] | 80 to 100% | 19 to 49.9% | > 10 µM | –
24 | CCOC(=O)N1CC2(CC[C@@H](N3CCN(c4cc(F)cnc4-c4cnc(OC(C)C)nc4)CC3)C2)C1 [Compound A158] | – | – | – | Emax ([1]; cAMP assay): 80 to 100%; Emax ([2]; FLIPR): 19 to 49.9%; EC50 ([3]; FLIPR): > 10 µM
25 | CCOC(=O)N1CC2(CC[C@@H](N3CCN(c4cc(F)cnc4-c4ccnn4C)CC3)C2)C1 [Compound A67] | 80 to 100% | 19 to 49.9% | > 10 µM | –
26 | CCOC(=O)N1CC2(CC[C@@H](N3CCN(c4cc(F)cnc4-c4cccnc4)CC3)C2)C1 [Compound A37] | 80 to 100% | – | > 10 µM | –
27 | CCOC(=O)N1CC2(CC[C@@H](N3CCN(c4cc(Cl)cnc4-c4ccc(=O)n(C)c4)CC3)C2)C1 [Compound A207] | – | – | – | Emax ([1]; cAMP assay): 80 to 100%; EC50 ([3]; FLIPR): > 10 µM
28 | CCOC(=O)N1CC2(CC[C@@H](N3CCN(c4cc(Cl)cnc4-n4cc(C)nn4)CC3)C2)C1 [Compound A247] | – | – | – | Emax ([1]; cAMP assay): 80 to 100%; EC50 ([3]; FLIPR): > 10 µM
29 | CCOC(=O)N1CC2(CC[C@@H](N3CCN(c4cc(F)cnc4-c4ccccc4C#N)CC3)C2)C1 [Compound A47] | 80 to 100% | – | > 10 µM | –
30 | CCOC(=O)N1CC2(CC[C@@H](N3CCN(c4cc(F)cnc4-c4cnc(C#N)c(F)c4)CC3)C2)C1 [Compound A83] | 80 to 100% | – | > 10 µM | –
31 | CCOC(=O)N1CC2(CC[C@@H](N3CCN(c4cccnc4N4CCCC4)CC3)C2)C1 [Compound A3, ethyl (6R)-6-[4-(2-pyrrolidin-1-yl-3-pyridyl)piperazin-1-yl]-2-azaspiro[3.4]octane-2-carboxylate] | – | 19 to 49.9% | > 10 µM | –
32 | C=CCn1cc(-c2ncc(F)cc2N2CCN([C@@H]3CCC4(C3)CN(C(=O)OCC)C4)CC2)cn1 [Compound A84] | 80 to 100% | – | > 10 µM | –
33 | [2H]C([2H])([2H])n1ccc(-c2ncc(F)cc2N2CCN([C@@H]3CCC4(C3)CN(C(=O)OCC)C4)CC2)n1 [Compound A199] | – | – | – | Emax ([1]; cAMP assay): 19 to 49.9%; EC50 ([3]; FLIPR): > 10 µM
